The species entered for this assay is Homo sapiens. As to the kind of experiment: Hypocholesterolemic effect in hypercholesterolemia patient assessed as decrease in LDL cholesterol level. Further details: scale not given: the % may be the effect or the level left. It is filed as functional.

These results are taken from ChEMBL document CHEMBL4145452, “Polymeric bile acid sequestrants: Review of design, in vitro binding activities, and hypocholesterolemic effects” (Eur J Med Chem, 2018).

Molecules are shown by their SMILES.

For the molecule `CC[C@H](C)C(=O)O[C@H]1C[C@@H](C)C=C2C=C[C@H](C)[C@H](CC[C@@H]3C[C@@H](O)CC(=O)O3)[C@H]21` [LOVASTATIN], the Activity was found to be 22%.
